Patent US9597314B2, “Beta-lactamylalkanoic acids for treating premenstrual disorders” (AZEVAN PHARMACEUTICALS, INC., priority 2005, dated 2017)

Biological target: V1a (Homo sapiens, UniProt P37288)
Test: Human vasopression V1a receptor binding assay
Parameters: host or cells: CHO cells (hV1a cell line), whole adherent cells
Settings: hV1a cell line (CHO); for IC50: 1 nM 3H-AVP, Table 17, read-out: V1a Binding Affinity (IC50 (nM)); for Ki: Table 18
Description: Human vasopression V1a receptor binding assay. A cell line expressing the human V1a receptor in CHO cells (henceforth referred to as the hV1a cell line) was obtained from Dr. Michael Brownstein, NIMH, Bethesda, Md., USA. The hV1a cDNA sequence is described by Thibonnier et al., Journal of Biological Chemistry, 269, 3304-3310 (1994), and the expression method was the same as described by Morel et al. (1992). The hV1a cell line was grown in alpha-MEM with 10% fetal bovine serum and 250 ug/ml G418 (Gibco, Grand Island, N.Y., USA). For competitive binding assay, hV1a cells were plated into 6-well culture plate at 1:10 dilution from a confluency flask, and maintained in culture for at least two days. Culture medium was then removed, cells were washed with 2 ml binding buffer (25 mM Hepes, 0.25% BSA, 1×DMEM, PH=7.0). To each well, 990 μl binding buffer containing 1 nM 3H-AVP was added, and followed by 10 μl series diluted Example compounds dissolved in DMSO. […] 100 nM cold AVP (Sigma) was used to assess non-specific binding. Cells were incubated for 45 minutes at 37° C., assay mixture was removed and each well was washed three times with PBS (pH=7.4). 1 ml 2% SDS was added per well and plates were let sit for 30 minutes. The whole content in a well was transferred to a scintillation vial. Each well was rinsed with 0.5 ml PBS which was then added to the corresponding vial. Scintillation fluid (Ecoscint, National Diagnostics, Atlanta, Ga.) was then added at 3 ml per vial. Samples were counted in a liquid scintillation counter (Beckman LS3801). IC50 values were calculated by Prism Curve fitting software.
All of the alkanedioic esters and amides exemplified in the foregoing examples dissolved in DMSO were tested in this assay. Binding curves were generated according to methods described by Thibonnier et al. (1994). [^3H]-AVP was added to the hV1a cell cultures followed by 10 fold dilutions of each test compound.

V1a, sequence (P37288 whole entry): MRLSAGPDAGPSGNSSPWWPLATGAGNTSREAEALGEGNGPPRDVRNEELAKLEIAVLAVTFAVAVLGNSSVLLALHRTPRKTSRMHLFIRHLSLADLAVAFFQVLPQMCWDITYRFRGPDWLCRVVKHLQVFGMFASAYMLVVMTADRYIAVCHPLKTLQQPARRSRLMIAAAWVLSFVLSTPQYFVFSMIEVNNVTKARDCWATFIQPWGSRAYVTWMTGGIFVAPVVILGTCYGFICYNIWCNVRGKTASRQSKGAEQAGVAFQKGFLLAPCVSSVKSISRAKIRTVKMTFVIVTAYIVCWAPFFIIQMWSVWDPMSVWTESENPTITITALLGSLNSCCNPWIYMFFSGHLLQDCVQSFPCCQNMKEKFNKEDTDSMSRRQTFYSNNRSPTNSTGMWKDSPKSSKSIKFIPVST

Row | IC50 [nM] | Ki [nM] | Structure (SMILES)
1 | 2.41 | 1.48 | CN(Cc1cccc(Br)c1)C(=O)[C@H](CCC(=O)N1CCN(C2CCCCC2)CC1)N1C(=O)[C@@H](N2C(=O)OC[C@@H]2c2ccccc2)[C@H]1/C=C/c1ccccc1 [Example 221D]
2 | 2.7 | 1.66 | CCN1CCN(C(=O)CC[C@@H](C(=O)N[C@@H]2CCCc3ccccc32)N2C(=O)[C@@H](N3C(=O)OC[C@@H]3c3ccccc3)[C@H]2/C=C/c2ccccc2)CC1 [Example 221BD]
3 | 8.6 | 5.25 | C[C@@]1(N2C(=O)OC[C@@H]2c2ccccc2)C(=O)N([C@H](CC(=O)N2CCC(N3CCCCC3)CC2)C(=O)NCc2cccc(C(F)(F)F)c2)[C@@H]1/C=C/c1ccccc1 [Example 234A, 4-(Piperidinyl)-piperidinyl 3(R)-[3(S)-(4(S)-phenyloxazolidin-2-on-3-yl)-3-methyl-4(R)-(styr-2-yl)azetidin-2-on-1-yl]-3-[(3-trifluoromethyl)phenylmethylaminocarbonyl]propanoic acid]
4 | ~50 | – | O=C(CC[C@@H](C(=O)N[C@@H]1CCCc2ccccc21)N1C(=O)[C@@H](N2C(=O)OC[C@@H]2c2ccccc2)[C@H]1/C=C/c1ccccc1)N[C@@H]1CCN(Cc2ccccc2)C1 [Example 221AD]
5 | ~50 | – | O=C(NC1(c2ccc(Cl)cc2)CCCC1)[C@H](CCC(=O)N1CCN(C2CCCCC2)CC1)N1C(=O)[C@@H](N2C(=O)OC[C@@H]2c2ccccc2)[C@H]1/C=C/c1ccccc1 [Example 221AQ]
6 | 9.1 | 5.58 | O=C(C[C@H](C(=O)NCc1cccc(C(F)(F)F)c1)N1C(=O)[C@@H](N2C(=O)OC[C@@H]2c2ccccc2)[C@H]1/C=C/c1ccccc1)NC1CCN(Cc2ccccc2)CC1 [Example 134C]

Further lines, the compound ahead of its results:

Row | Structure (SMILES) | IC50 [nM] | Ki [nM]
7 | O=C(NCc1cccc(Br)c1)[C@H](CCC(=O)N1CCN(C2CCCCC2)CC1)N1C(=O)[C@@H](N2C(=O)OC[C@@H]2c2ccccc2)[C@H]1/C=C/c1ccccc1 [Example 190] | 0.88 | 0.54
8 | O=C(NCc1cccc(Cl)c1Cl)[C@H](CCC(=O)N1CCN(C2CCCCC2)CC1)N1C(=O)[C@@H](N2C(=O)OC[C@@H]2c2ccccc2)[C@H]1/C=C/c1ccccc1 [Example 176] | 0.61 | –
9 | O=C(NCc1ccccc1)[C@H](CCC(=O)N1CCN(C2CCCCC2)CC1)N1C(=O)[C@@H](N2C(=O)OC[C@@H]2c2ccccc2)[C@H]1/C=C/c1ccccc1 [Example 191] | 2.92 | 1.79
10 | Cc1ccc(CNC(=O)[C@H](CCC(=O)N2CCN(C3CCCCC3)CC2)N2C(=O)[C@@H](N3C(=O)OC[C@@H]3c3ccccc3)[C@H]2/C=C/c2ccccc2)o1 [Example 212] | 0.95 | 0.58
11 | O=C(NCc1cccc(C(F)(F)F)c1)[C@H](CCC(=O)N1CCN(CCC2CCCCC2)CC1)N1C(=O)[C@@H](N2C(=O)OC[C@@H]2c2ccccc2)[C@H]1/C=C/c1ccccc1 [Example 111] | – | 0.82
12 | CC(C)(NC(=O)[C@H](CCC(=O)N1CCN(C2CCCCC2)CC1)N1C(=O)[C@@H](N2C(=O)OC[C@@H]2c2ccccc2)[C@H]1/C=C/c1ccccc1)c1ccccc1 [Example 204] | 6 | 3.7
13 | O=C(NCc1cc(Cl)cc(Cl)c1)[C@H](CCC(=O)N1CCN(C2CCCCC2)CC1)N1C(=O)[C@@H](N2C(=O)OC[C@@H]2c2ccccc2)[C@H]1/C=C/c1ccccc1 [Example 174] | 1.46 | 0.89
14 | CN(Cc1cccc(C(F)(F)F)c1)C(=O)[C@H](CCC(=O)N1CCN(C2CCCCC2)CC1)N1C(=O)[C@@H](N2C(=O)OC[C@@H]2c2ccccc2)[C@H]1/C=C/c1ccccc1 [Example 205] | 0.34 | 0.21
15 | COc1cc(OC)cc(C(C)(C)NC(=O)[C@H](CCC(=O)N2CCN(C3CCCCC3)CC2)N2C(=O)[C@@H](N3C(=O)OC[C@@H]3c3ccccc3)[C@H]2/C=C/c2ccccc2)c1 [Example 218] | 7.7 | 4.7
16 | Cc1ccccc1C(C)(C)NC(=O)[C@H](CCC(=O)N1CCN(C2CCCCC2)CC1)N1C(=O)[C@@H](N2C(=O)OC[C@@H]2c2ccccc2)[C@H]1/C=C/c1ccccc1 [Example 221] | 5.1 | –
